Source: ChEMBL document CHEMBL1212836, “Pyridazinopsoralens of wide chemotherapeutic interest” (Bioorg Med Chem, 2010)
Calls of active or inactive are those of the source. No cut-off for these calls is given here.

How the values were obtained:
Nucleic Acid [1] = test: Binding affinity to Salmon testes DNA assessed as drug-DNA complex formation at drug/DNA ratio 0.02 to 0.08 by linear flow dichroism method; type: nucleic-acid assay; conditions: Salmonidae
HeLa [2] = test: Cytotoxicity against human HeLa cells treated under dark condition after 24 hrs by trypan blue assay; type: functional, cell-based
HL-60 [3] = test: Cytotoxicity against human HL60 cells after 24 hrs by trypan blue assay in presence of 0.789 J cm-2 of UVA light; type: functional, cell-based; conditions: HL-60, light or radiation study
HL-60 [4] = test: Cytotoxicity against human HL60 cells treated under dark condition after 24 hrs by trypan blue assay; type: functional, cell-based; conditions: HL-60, 24 h
HeLa [5] = test: Cytotoxicity against human HeLa cells after 24 hrs by trypan blue assay in presence of 0.789 J cm-2 of UVA light; type: functional, cell-based; conditions: light or radiation study
HL-60 [6] = test: Cytotoxicity against human HL60 cells treated under dark condition after 72 hrs by trypan blue assay; type: functional, cell-based; conditions: HL-60, 72 h
[7] = biological target: DNA topoisomerase 2-alpha (Homo sapiens) (UniProt P11388); test: Inhibition of human recombinant topoisomerase 2alpha-mediated relaxation of supercoiled pBR322 DNA after 60 mins by agarose gel electrophoresis
Nucleic Acid [8] = test: Induction of Escherichia coli supercoiled pBR322 DNA cleavage at up to 200 uM after 30 mins by gel electrophoresis; type: nucleic-acid assay
Nucleic Acid [9] = test: Stabilization of supercoiled pBR322 DNA-human recombinant topoisomerase 2 complex assessed as linear DNA formation at 5 to 50 uM after 60 mins; type: nucleic-acid assay; conditions: Escherichia coli
Nucleic Acid [10] = test: Stabilization of supercoiled pBR322 DNA-human recombinant topoisomerase 2 complex assessed as linear DNA formation at 8 uM after 60 mins; type: nucleic-acid assay; conditions: Escherichia coli
Nucleic Acid [11] = test: Induction of Escherichia coli supercoiled pBR322 DNA cleavage at 5 uM after 30 mins by gel electrophoresis; type: nucleic-acid assay
Nucleic Acid [12] = test: Induction of Escherichia coli supercoiled pBR322 DNA cleavage at 50 uM after 30 mins by gel electrophoresis; type: nucleic-acid assay

DNA topoisomerase 2-alpha (Homo sapiens), sequence (P11388 whole entry): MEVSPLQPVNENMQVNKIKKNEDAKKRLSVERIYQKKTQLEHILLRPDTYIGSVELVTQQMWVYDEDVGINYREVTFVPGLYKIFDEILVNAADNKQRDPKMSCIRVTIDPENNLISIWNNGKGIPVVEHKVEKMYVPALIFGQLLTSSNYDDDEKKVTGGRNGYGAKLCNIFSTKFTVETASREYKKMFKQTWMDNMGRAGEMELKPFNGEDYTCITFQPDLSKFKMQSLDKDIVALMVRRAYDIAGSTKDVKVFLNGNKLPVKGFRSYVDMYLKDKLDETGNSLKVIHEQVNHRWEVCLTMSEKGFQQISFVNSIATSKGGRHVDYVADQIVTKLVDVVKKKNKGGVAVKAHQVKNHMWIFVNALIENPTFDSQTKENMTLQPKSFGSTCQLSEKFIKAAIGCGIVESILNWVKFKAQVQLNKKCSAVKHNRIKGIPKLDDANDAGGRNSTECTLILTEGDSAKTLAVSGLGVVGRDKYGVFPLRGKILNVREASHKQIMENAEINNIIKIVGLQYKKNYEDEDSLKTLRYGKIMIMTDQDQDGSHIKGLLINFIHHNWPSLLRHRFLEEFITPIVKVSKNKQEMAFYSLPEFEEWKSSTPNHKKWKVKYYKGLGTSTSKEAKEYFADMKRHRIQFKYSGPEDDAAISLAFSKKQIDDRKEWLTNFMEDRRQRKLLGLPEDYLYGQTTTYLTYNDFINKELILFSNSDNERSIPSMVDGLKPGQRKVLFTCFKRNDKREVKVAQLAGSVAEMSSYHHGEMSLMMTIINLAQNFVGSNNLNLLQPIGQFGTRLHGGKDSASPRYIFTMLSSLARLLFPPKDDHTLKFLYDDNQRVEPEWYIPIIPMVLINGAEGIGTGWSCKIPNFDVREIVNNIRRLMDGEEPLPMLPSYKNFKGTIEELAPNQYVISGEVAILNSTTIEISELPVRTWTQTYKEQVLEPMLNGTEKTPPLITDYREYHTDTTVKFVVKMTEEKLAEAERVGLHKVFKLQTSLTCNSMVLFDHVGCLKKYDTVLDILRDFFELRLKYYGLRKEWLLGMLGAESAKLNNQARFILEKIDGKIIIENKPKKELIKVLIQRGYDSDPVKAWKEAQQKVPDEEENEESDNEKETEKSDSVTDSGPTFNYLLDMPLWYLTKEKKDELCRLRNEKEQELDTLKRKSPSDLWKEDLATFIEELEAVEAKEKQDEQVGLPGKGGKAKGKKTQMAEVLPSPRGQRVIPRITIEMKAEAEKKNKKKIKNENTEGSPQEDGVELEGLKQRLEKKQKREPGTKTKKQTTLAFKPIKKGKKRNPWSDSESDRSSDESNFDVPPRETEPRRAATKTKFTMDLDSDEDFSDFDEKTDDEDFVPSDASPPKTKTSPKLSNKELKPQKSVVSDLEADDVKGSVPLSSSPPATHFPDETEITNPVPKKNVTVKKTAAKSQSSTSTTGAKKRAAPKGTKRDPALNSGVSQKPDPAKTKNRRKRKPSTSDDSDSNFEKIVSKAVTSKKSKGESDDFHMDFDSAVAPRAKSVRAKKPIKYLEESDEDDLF

| Activity (Nucleic Acid [1]) | Activity [7] | Activity (Nucleic Acid [8]) | Activity (Nucleic Acid [9]) | Activity (Nucleic Acid [10]) | Activity (Nucleic Acid [11]) | Activity (Nucleic Acid [12]) | SMILES | IC50 (HeLa [2]) [µM] | IC50 (HL-60 [3]) [µM] | IC50 (HL-60 [4]) [µM] | IC50 (HeLa [5]) [µM] | IC50 (HL-60 [6]) [µM] |
| --- | --- | --- | --- | --- | --- | --- | --- | --- | --- | --- | --- | --- |
| Active | Dose-dependent effect | – | inactive | Active | Active | – | CCN(CC)CCCNC(=O)c1nnc(C(=O)NCCCN(CC)CC)c2c1oc1c(C)c3oc(=O)cc(C)c3cc12 | 14.7 | 0.8 | 0.9 | 3.5 | 0.37 |
| Active | – | – | – | – | – | – | Cc1cc(=O)oc2c(C)c3oc4c(C(=O)NCCN(C)C)nnc(C(=O)NCCN(C)C)c4c3cc12 | 11.9 | 1.3 | 0.9 | 2.4 | 0.41 |
| Active | – | – | – | – | – | – | Cc1cc(=O)oc2c(C)c3oc4c(C(=O)NCCCN(C)C)nnc(C(=O)NCCCN(C)C)c4c3cc12 | 11.5 | 2.6 | 3.8 | 3.7 | 0.61 |

Second part, the compound before the results:

| SMILES | Activity (Nucleic Acid [1]) | Activity [7] | Activity (Nucleic Acid [8]) | Activity (Nucleic Acid [9]) | Activity (Nucleic Acid [10]) | Activity (Nucleic Acid [11]) | Activity (Nucleic Acid [12]) | IC50 (HeLa [2]) [µM] | IC50 (HL-60 [3]) [µM] | IC50 (HL-60 [4]) [µM] | IC50 (HeLa [5]) [µM] | IC50 (HL-60 [6]) [µM] |
| --- | --- | --- | --- | --- | --- | --- | --- | --- | --- | --- | --- | --- |
| CCN(CC)CCNC(=O)c1nnc(C(=O)NCCN(CC)CC)c2c1oc1c(C)c3oc(=O)cc(C)c3cc12 | Active | – | – | – | – | – | – | 17.2 | 3.5 | 1.2 | 4.4 | 0.57 |
| COc1c2occc2cc2ccc(=O)oc12 [METHOXSALEN] | – | – | – | – | – | – | – | – | – | > 20 | – | > 20 |
| Cc1cc(=O)oc2c(C)c3oc4cnncc4c3cc12 | Active | Dose-dependent effect | inactive | – | – | – | – | 8.5 | 4.1 | 3.9 | 3.8 | 2.6 |
| COc1cc(NS(C)(=O)=O)ccc1Nc1c2ccccc2nc2ccccc12 | – | – | – | – | Active | – | – | – | – | – | – | – |
| CCN(CC)CCCNC(=O)c1nncc2oc3c(C)c4oc(=O)cc(C)c4cc3c12 | Active | Dose-dependent effect | – | – | – | – | Active | 11.5 | 2.2 | 2.1 | 7.4 | 0.9 |
